In the assay the test system is A2058. Kind of assay: Cytotoxicity against human A2058 cells assessed as survival at 250 uM relative to control. Particulars: read-out: Survival. Type of assay: functional.

Results on 1 compound are retold here after ChEMBL document CHEMBL4118041, “Targeted Dereplication of Microbial Natural Products by High-Resolution MS and Predicted LC Retention Time” (2017).

SMILES strings stand for the structures.

`CC1=C(NC(=O)CC(C)C)C(=O)N(CCCC(=O)O)C1=O`: the viability at 250 µM came to 100%.
